Assay results taken from patent US20080214618A1, “Gastric Therapies Amd Compositions Therefor” (Auckland Uniservices Limited, priority 2004, published 2008).

Tests used:
H. pylori = assay: Survival / MBC of H. pylori in standard incubations (40 min, 37° C., pH 7.4); assay type: cell-based, Helicobacter pylori; settings: for effect on H. pylori viability of each ingredient by itself at low concentration: 0.3 mM FA C12:0, 0.05% Tween 20, 200 μg/ml lansoprazole, each alone
Method: FIG. 1 The survival of H. pylori in the presence of: FA C12:0 only (▴); FA C12:0 plus 100 μg/mL lansoprazole ([…]); FA C12:0 plus 200 μg/mL lansoprazole (▪); FA C12:0 plus 300 μg/mL lansoprazole (▾); FA C12:0 plus 400 μg/mL lansoprazole (♦); FA C12:0 plus 0.05% (w/w) Tween 20 (Δ); FA C12:0 plus 100 μg/mL lansoprazole plus 0.05% (w/w) Tween 20 (◯); FA C12:0 plus 200 μg/mL lansoprazole plus 0.05% (w/w) Tween 20 (□). Cells were incubated at pH 7.4 for 40 min at 37° C.
FIG. 2 The effect of lansoprazole on the survival of H. pylori in the presence of 0.05% Tween 20 (▴), and in its absence (Δ). Cells were incubated at pH 7.4 for 40 min at 37° C.
FIG. 4 The effect of monolaurin (MG C12) on survival of H. pylori in the absence (squares) and presence (diamonds) of Tween 80 (0.4%, w/v), after 40 min exposure at 37° C. and initial pH 7.4.
These can be selected from any one or more of capric acid, lauric acid, myristic acid, myristoleic acid, palmitoleic acid, linolenic acid, monolaurin or monomyristin for example. This list is not intended to be limiting. Reference can also be made to Table 1 of Sun et al FEMS Immun. Med. Microbiol. 36, 9-17, 2003 (the disclosure of which is included herein by way of reference). The MBC is the minimum concentration of agent(s) that result(s) in a 5 log units decrease in viable cell numbers.
The effects of combinations of lansoprazole (0-400 μg/mL), 0.05% Tween 20, and FA C12:0 (0.1-1.0 mM) on the viability of H. pylori were examined in standard incubations. The results are shown in FIG. 1, and the MBCs for FA C12:0, with different combinations of lansoprazole and Tween 20, are summarised in Table 1.
Experiments to Examine Possible Interactions Between Monolaurin (MG C12) and Tween 80. The concentration profile of monolaurin on the survival of H. pylori was tested in the presence and absence of 0.4% (w/v) Tween 80, and the results are shown in FIG. 4. MG C12 on its own, has little effect in the range 0-0.3 mM. However in the range 0.3-0.5 mM MG C12 there is a sharp increase in bactericidal potency, and the killing increased by >5 log units (FIG. 4, squares).

[1] = tested on: Helicobacter pylori in mucus; assay: In vitro mucus/H. pylori test chamber model: survival of H. pylori in pig gastric mucus; assay type: cell-based, Helicobacter pylori (NCTC 11637)
Excerpt: FIG. 3 Diagram of apparatus used to model the mucus layer in digestive tract. This test chamber was designed as an in vitro model to investigate the barrier effect of mucus in protecting H. pylori from agents present in the lumen of the stomach. […] The mucus layer (C2), contains H. pylori, with numbers of colony forming units as specified. It is held as a 1 mm thick disc between the test chamber base (B and C4) and a stainless steel mesh (A and C1). This was then inserted into a Falcon tube containing broth (D). • A. Screw top lid with a recessed top containing a stainless steel grid. • B. Base with recessed well 1 mm deep×10 mm diameter that contains mucus (shaded area—see C2) • C. Cross sectional view of chamber (A & B). 1—stainless steel mesh, 2=mucus, 3=screw top lid, 4=base • D. Chamber in a Falcon tube covered with Iso-sensitest broth (with or without additives). An H. pylori (NCTC 11637) culture was mixed with pig gastric mucus for 40 min, and then H. pylori colonies were re-isolated by dilution and plating. The re-isolated strain was used in the experiments below. PCR of the 16S rDNA piece and sequencing was used to confirm that the re-isolated bacterial strain was H. pylori. H. pylori was grown by plating on Columbia agar (Oxoid) with 5% horse serum (Fort Richard) at 37° C. for 48 h under microaerophilic conditions (80% nitrogen, 15% carbon dioxide, 5% oxygen). Two loops of 48 h agar plate culture were inoculated into pre-warmed (37° C.) Iso-sensitest broth (Oxoid) containing 5% horse serum and incubated for 24 h under microaerophilic conditions. This 24 h H. pylori broth culture (500 μL) was added to 3.5 g of thawed pre-warmed pig gastric mucus (previously frozen at −20° C.) and mixed. […] Final concentrations of surviving H. pylori colony forming units (cfu) were calculated per gram of mucus. […] Abbreviations used are: FA=0.1 or 0.2 mM lauric acid; TW=0.05% Tween 20; OM=0.58 mM omeprazole; NAC=0.245 M N-acetylcysteine. • (a) Calculated H. pylori cfu's initially added per gram of mucus. […]

SMILES	effect on H. pylori viability of each ingredient by itself at low concentration (H. pylori)	MBC (H. pylori; Helicobacter pylori, 40 min, MBC of FA C12:0 in medium with the stated additions, 40 min incubation with H. pylori at 37° C. and pH 7.4, MBC = concentration giving 5 log units decrease in viable cells, read-out: MBC (minimal bactericidal concentration of FA C12:0)) [µM]	effect of FA on its own on H. pylori survival in mucus ([1]; 0.1 mM FA experiment)	H. pylori numbers (cfu per g mucus) using 0.1 mM FA ([1]; 0.1 mM lauric acid, TW=0.05% Tween 20, OM=0.58 mM omeprazole, NAC=0.245 M N-acetylcysteine, 40 min, 37° C., pH 7.0, broth-alone control 1.29 × 10^6)	H. pylori numbers (cfu per g mucus) using 0.2 mM FA ([1]; 0.2 mM lauric acid, TW=0.05% Tween 20, OM=0.58 mM omeprazole, NAC=0.245 M N-acetylcysteine, 40 min, 37° C., pH 7.0, broth-alone control 2.64 × 10^4)	killing of H. pylori (H. pylori; 0.5 mM monolaurin in the absence of Tween 80, 40 min, 37° C., initial pH 7.4) [logs]	killing of H. pylori (H. pylori; 0.5 mM monolaurin with 0.4% Tween 80 present, 40 min, 37° C., initial pH 7.4) [logs]	effect of MG C12 on its own on survival of H. pylori (H. pylori; range 0-0.3 mM MG C12, no Tween 80, 40 min, 37° C., initial pH 7.4)	increase in killing of H. pylori (H. pylori; range 0.3-0.5 mM MG C12 on its own, 40 min, 37° C., initial pH 7.4) [log units]	effect of lansoprazole by itself on H. pylori in vitro (H. pylori; concentrations below 400 μg/mL, Midolo et al observation, confirmed by FIG. 2 (pH 7.4, 40 min, 37° C.))
CCCCCCCCCCCC(=O)O [FA C12:0, lauric acid]	no effect	1000	minimal effect	1.85 × 10^5 cfu per g mucus	2.59 × 10^4 cfu per g mucus	–	–	–	–	–
CCCCCCCCCCCC(=O)OCC(O)CO (centres unmarked) [MG C12, monolaurin]	–	–	–	–	–	> 5	3	little effect	> 5	–
Cc1c(OCC(F)(F)F)ccnc1C[S+]([O-])c1nc2ccccc2[nH]1 (centres unmarked) [lansoprazole, reference compound]	no effect	–	–	–	–	–	–	–	–	little effect
